Experimental findings from patent US20250263426A1, “PDE4B INHIBITOR AND USE THEREOF” (Xizang Haisco Pharmaceutical Co., Ltd., priority 2022, published 2025) are described below.

In one data set the target is PDE4D2 (Homo sapiens (Human), UniProt Q08499). Briefly: Effect of compounds on PDE4D2 activity (fluorescence polarization kit). In kind it is biochemical. Background: Polarisation of emitted light reports the rotation of a fluorescent probe.
The next data set has as its target PDE4B2 (Homo sapiens (Human), UniProt Q07343). The data set can be described thus: Effect of compounds on PDE4B2 activity (fluorescence polarization kit).
Another data set deals with PDE4B1 (Homo sapiens (Human), UniProt Q07343). Briefly: Effect of compounds on PDE4B1 activity (IMAP fluorescence polarization kit). Type of data set: biochemical. Here is the method: The effect of compounds on PDE4B1 activity was detected using a fluorescence polarization kit (IMAP FP IPP Explorer KIT, Molecular Device, Cat #R8124). The IMAP Reaction Buffer containing 0.1% BSA (5×) in the kit was diluted into a 1-fold reaction buffer containing 1 mM DTT. 0.12 nM PDE4B1 (BPS, Cat #60041) was added to the 1-fold reaction buffer to form a 2-fold enzyme solution. 10 μL of the 2-fold enzyme solution was added to wells of a 384-well reaction plate. For the negative control well, 10 μL of the 1-fold reaction buffer was used instead of the enzyme solution. Centrifugation at 1000 rpm for 1 minute and incubation at room temperature for 15 minutes were carried out. 0.2 uM FAM-labeled cAMP (FAM-cAMP, Molecular Device, Cat #R7506) was added to the 1-fold reaction buffer to form a 2-fold substrate solution. 10 μL of the 2-fold substrate solution was added to each well of the 384-well reaction plate. Centrifugation at 1000 rpm for 1 minute was carried out. A reaction was carried out at room temperature for 20 minutes. IMAP Progressive Binding Buffer A (5×), IMAP Progressive Binding Buffer B (5×), and IMAP Progressive Binding Reagent (provided by IMAP FP IPP Explorer Kit) were prepared into a reaction stop solution according to the instructions for use. 60 μL of an […] reaction stop solution was added to each well of the 384-well reaction plate to stop the reaction, and the reaction product was centrifuged at 1000 rpm for 1 minute. Incubation at room temperature in the dark for 60 minutes was carried out. The mP values (Ex480/Em535 (s), Em535 (p)) were read by a microplate reader (Envision).
Sequence of PDE4B1 (Q07343 whole entry): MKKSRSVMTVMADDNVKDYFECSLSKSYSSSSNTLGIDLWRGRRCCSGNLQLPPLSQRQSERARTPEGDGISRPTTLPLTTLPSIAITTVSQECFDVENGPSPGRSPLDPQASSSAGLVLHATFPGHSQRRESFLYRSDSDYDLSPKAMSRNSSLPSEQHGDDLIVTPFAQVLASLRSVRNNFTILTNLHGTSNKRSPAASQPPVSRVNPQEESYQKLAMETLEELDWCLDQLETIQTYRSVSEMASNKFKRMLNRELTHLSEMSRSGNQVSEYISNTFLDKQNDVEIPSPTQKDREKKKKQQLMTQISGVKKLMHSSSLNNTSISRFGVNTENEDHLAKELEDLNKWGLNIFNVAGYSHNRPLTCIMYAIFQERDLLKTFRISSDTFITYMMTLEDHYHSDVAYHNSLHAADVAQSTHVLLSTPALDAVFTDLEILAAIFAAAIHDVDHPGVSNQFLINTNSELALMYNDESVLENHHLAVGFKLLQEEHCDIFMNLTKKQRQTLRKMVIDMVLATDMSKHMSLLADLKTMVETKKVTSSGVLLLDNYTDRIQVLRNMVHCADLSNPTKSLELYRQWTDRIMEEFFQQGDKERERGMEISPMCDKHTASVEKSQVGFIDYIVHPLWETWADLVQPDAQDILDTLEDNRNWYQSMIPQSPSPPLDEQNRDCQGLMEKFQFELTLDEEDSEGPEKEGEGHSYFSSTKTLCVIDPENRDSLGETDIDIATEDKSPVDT
FP was usually represented by mP value. mP value for FP measurement=1000*(S−G*P)/(S+G*P) • S: fluorescence intensity in parallel direction • P: fluorescence intensity in perpendicular direction • G: G factor=1
[formula] • mP(sample): mP of the test compound in a reaction well • mP(negative control): mP in the negative control well • mP(positive control): mP in the positive control well
According to the calculated inhibition rate at each concentration, the IC50 value of each compound was calculated by XLFit excel add-in version 5.4.0.8 software.

Data set [1] has as its system human peripheral blood mononuclear cells (TNF-α release). The data set can be described thus: Inhibition of LPS-induced TNF-α release from human peripheral blood mononuclear cells in vitro. In kind it is cell-based. The settings on record: 4 h; for IC50: read-out: Re IC50; for Emax: read-out: Max inhibition (%).
Data set [2] is described as follows: Pharmacokinetic test in mice. Type of data set: in vivo, ICR mice. The settings on record: for half-life: read-out: T½ (converted). Here is the method:
6.1 Experimental animals: Male ICR mice, 20-25 g, 6 mice/compound, purchased from Chengdu Ddossy Experimental Animals Co., Ltd.
6.2 Experiment design: On the day of the experiment, 6 ICR mice were randomly grouped according to their body weights. The animals were fasted with water available for 12 to 14 h one day before the administration and were fed 4 h after the administration.

Data set [3] can be described thus: Pharmacokinetic test in beagle dogs. Type of data set: in vivo. The settings on record: for half-life: read-out: T½ (converted). On the procedure:
8.1 Experimental animals: Male beagle dogs, about 8-11 kg, 6 beagle dogs/compound, purchased from Beijing Marshall Biotechnology Co., Ltd.
8.2 Experimental method: On the day of the experiment, 6 beagle dogs were randomly grouped according to their body weights. The animals were fasted with water available for 12 to 14 h one day before the administration and were fed 4 h after the administration. Administration was carried out according to Table 10.

A short description of data set [4]: Pharmacokinetic test in rats. The settings on record: male, SD. In kind it is in vivo. On the procedure:
7.1 Experimental animals: Male SD rats, about 220 g, 6-8 weeks old, 6 rats/compound, purchased from Chengdu Ddossy Experimental Animals Co., Ltd.
7.2 Experiment design: On the day of the experiment, 6 SD rats were randomly grouped according to their body weights. The animals were fasted with water available for 12 to 14 h one day before the administration and were fed 4 h after the administration.

Where [5] appears, read: relative IC50, hPBMC, 100 ng/mL LPS.
Setting [6] is: male, ICR, iv, mouse plasma, i.v. 2.5 mg/kg.
Where [7] appears, read: male, ICR, po, mouse plasma, i.g. 10 mg/kg.
Setting [8] is: male, iv, beagle dog plasma, i.v. 1 mg/kg.
[9] abbreviates: male, po, beagle dog plasma, i.g. 3 mg/kg.
The mark [10] stands for this setting: Homo sapiens, PBMC, hPBMC, 100 ng/mL LPS.

Structures are written as SMILES. Where two headings read alike, the source gives them in different places.

Sequence of PDE4B2 (Q07343 other isoform, or with tags, fused parts or gaps): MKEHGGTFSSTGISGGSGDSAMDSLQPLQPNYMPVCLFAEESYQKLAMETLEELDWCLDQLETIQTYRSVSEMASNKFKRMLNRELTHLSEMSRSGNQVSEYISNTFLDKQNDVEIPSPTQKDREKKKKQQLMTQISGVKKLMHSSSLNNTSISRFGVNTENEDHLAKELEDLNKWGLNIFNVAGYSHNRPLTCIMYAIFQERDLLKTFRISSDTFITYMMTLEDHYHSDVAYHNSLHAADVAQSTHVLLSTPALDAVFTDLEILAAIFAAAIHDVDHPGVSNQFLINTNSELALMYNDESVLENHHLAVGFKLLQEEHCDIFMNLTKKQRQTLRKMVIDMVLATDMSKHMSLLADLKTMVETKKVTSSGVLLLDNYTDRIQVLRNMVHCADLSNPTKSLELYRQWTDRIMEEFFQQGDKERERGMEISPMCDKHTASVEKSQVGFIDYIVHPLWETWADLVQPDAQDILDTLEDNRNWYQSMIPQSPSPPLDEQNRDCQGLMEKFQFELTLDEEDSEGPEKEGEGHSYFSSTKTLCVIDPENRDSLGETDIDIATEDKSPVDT
Sequence of PDE4D2 (Q08499 303-809, change not shown): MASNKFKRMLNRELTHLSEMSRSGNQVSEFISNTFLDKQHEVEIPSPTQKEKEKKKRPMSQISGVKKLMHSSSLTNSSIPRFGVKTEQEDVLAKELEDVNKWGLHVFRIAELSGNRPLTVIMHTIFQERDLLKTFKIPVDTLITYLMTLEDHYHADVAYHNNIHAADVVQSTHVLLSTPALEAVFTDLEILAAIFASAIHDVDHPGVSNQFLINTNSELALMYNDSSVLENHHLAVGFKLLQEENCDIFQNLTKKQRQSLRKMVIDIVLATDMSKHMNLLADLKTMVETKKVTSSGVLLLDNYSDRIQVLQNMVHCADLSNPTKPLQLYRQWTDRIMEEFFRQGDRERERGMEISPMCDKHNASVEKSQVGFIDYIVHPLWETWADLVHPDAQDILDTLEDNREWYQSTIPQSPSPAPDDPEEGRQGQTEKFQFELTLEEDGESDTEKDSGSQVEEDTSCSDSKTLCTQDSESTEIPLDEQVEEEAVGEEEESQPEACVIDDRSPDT
Protocol for PDE4B2: [formula] • I∥ (S535): fluorescence intensity in parallel direction • I⊥ (P535): fluorescence intensity in perpendicular direction • G: G factor=1
According to the calculated inhibition rate at each concentration, the IC50 value of each compound was calculated by GraphPad Prism 8 software.

Turning to `[O-][S+]1CCCc2nc(N3CCC(c4ncc(Cl)cn4)CC3)nc(NC3(CO)CCC3)c21` (centres unmarked) [Compound 3], the IC50 (commonly the concentration needed to halve the response being measured) is under 10 nM against PDE4D2, 10 to 50 nM on PDE4B2 (read-out: PDE4B2 IC50) and under 10 nM on PDE4B1.
For the compound `[O-][S@@+]1CCCc2nc(N3CC=C(c4ccc(Cl)cc4)CC3)nc(NC3(CO)CCC3)c21` [Compound 8-2], the half-maximal inhibitory concentration (IC50) against PDE4D2 and against PDE4B1 was under 10 nM each time.
With `[O-][S@@+]1CCCc2nc(N3CC=C(c4ncc(Cl)cn4)CC3)nc(NC3(CO)CCC3)c21` [Compound 9-2], the concentration for half-maximal inhibition (IC50) at PDE4D2 is under 10 nM; in data set [1] (setting [5]) it was 10 to 50 nM; on PDE4B1, under 10 nM. In data set [1] (hPBMC, 100 ng/mL LPS), the “Max inhibition (%)” value was found to be 69.47%.
The compound `[O-][S@+]1CCCc2nc(N3CCC(c4ccc(Cl)cc4)CC3)nc(NC3(CO)CCC3)c21` [Compound 10-2] had an IC50 against PDE4B1 of 10 to 50 nM.
As for `[O-][S@@+]1CCCc2nc(N3CCN(c4ccc(Cl)cc4)CC3)nc(NC3(CO)CCC3)c21` [Compound 11-1], the results for the IC50 at PDE4D2 and against PDE4B1 were 10 to 50 nM and under 10 nM, respectively.
Turning to `CC(C)(COC(N)=O)Nc1nc(N2CC=C(c3ncc(Cl)cn3)CC2)nc2c1[S@+]([O-])CC2` [Compound 51], the half-inhibitory concentration (IC50) on PDE4D2 is under 10 nM; against PDE4B2 it was under 10 nM; in data set [1] (Homo sapiens, PBMC), under 10 nM. In addition, the AUC(0-t) (as a rule, exposure summed from dosing to a finite time, without extrapolation to infinity) was determined as 5420 ± 926 ng·h/mL in data set [2] (setting [6]), 30100 ± 5360 ng·h/mL in data set [2] (setting [7]), 4990 ± 239 ng·h/mL in data set [3] (setting [8]) and 11200 ± 1710 ng·h/mL in data set [3] (setting [9]). The clearance (in general, the volume of plasma or blood freed of the substance per unit of time) in data set [2] (setting [6]) is 7.81 ± 1.4 mL/min/kg; in data set [3] (setting [8]), 3.06 ± 0.18 mL/min/kg. For the same compound, the half-life in data set [2] (setting [6]) is 2.82 ± 0.23 h; in data set [2] (setting [7]), 3.33 ± 0.58 h; in data set [3] (setting [8]), 12.8 ± 3.8 h; in data set [3] (setting [9]) it was 16.1 ± 5.5 h. Further, the Vd in data set [2] (male, ICR, iv, mouse plasma, i.v. 2.5 mg/kg, read-out: Vdss) came to 1.29 ± 0.039 L/kg; in data set [3] (male, iv, beagle dog plasma, i.v. 1 mg/kg, read-out: Vdss) it was 3.08 ± 0.61 L/kg. The F is recorded as over 98% in data set [2] (mouse, i.g. 10 mg/kg) and 74.9 ± 11% in data set [3] (beagle dog, i.g. 3 mg/kg). For the same compound, the Emax in data set [1] (setting [10]) was determined as 69%.
As to `CC(C)(COC(N)=O)Nc1nc(N2CC=C(c3ncc(C4CC4)cn3)CC2)nc2c1[S@+]([O-])CC2` [Compound 84], the IC50 was under 10 nM on PDE4D2; under 10 nM against PDE4B2; under 10 nM in data set [1] (Homo sapiens, PBMC). Moreover, the Emax in data set [1] (setting [10]) is 68%. Also, the exposure AUC(0-t) amounted to 16500 ng·h/mL in data set [4] (iv, rat plasma, i.v. 2.5 mg/kg) and 52200 ng·h/mL in data set [4] (po, rat plasma, i.g. 10 mg/kg). The compound also displayed a clearance in data set [4] (iv, rat plasma, i.v. 2.5 mg/kg) of 2.54 ± 0.32 mL/min/kg. In data set [4] (iv, rat plasma, i.v. 2.5 mg/kg, read-out: Vdss), the Vd turned out to be 0.324 ± 0.012 L/kg. For the same compound, the bioavailability – broadly, the share of a dose that reaches the circulation, judged against a reference dose that is usually intravenous – in data set [4] (plasma, po, rat, i.g. 10 mg/kg) came to 78.9 ± 32%.
For the compound `CC#Cc1cnc2c(c1)OC[C@@H]1CN(c3nc4c(c(NC(C)(C)COC(N)=O)n3)[S@+]([O-])CC4)CCN21` [Compound 112-1], the IC50 against PDE4D2 is 10 to 50 nM; at PDE4B2 (read-out: PDE4B2 IC50) it was under 10 nM; in data set [1] (setting [5]), 10 to 50 nM. For the same compound, in data set [1] (hPBMC, 100 ng/mL LPS), the “Max inhibition (%)” value worked out at 83.76%.
Turning to `COC(=O)NCC(C)(C)Nc1nc(N2CC=C(c3ncc(C4CC4)cn3)CC2)nc2c1[S@+]([O-])CC2` [Compound 117], the IC50 at PDE4D2 was 10 to 50 nM; against PDE4B2 it was 10 to 50 nM; in data set [1] (Homo sapiens, PBMC), 10 to 50 nM. For the same compound, the Emax in data set [1] (setting [10]) was found to be 86%.
Consider `COC(=O)NCC(C)(C)Nc1nc(N2C[C@@H]3CC(c4ncc5c(n4)CC5)=C[C@@H]3C2)nc2c1[S@+]([O-])CC2` [Compound 139-1], for which the IC50 (against PDE4D2; at PDE4B2 (read-out: PDE4B2 IC50); in data set [1] (setting [5])) was under 10 nM throughout. The “Max inhibition (%)” value in data set [1] (hPBMC, 100 ng/mL LPS) is reported as 92.69%.
With `CC#Cc1cnc2c(c1)OC[C@@H]1CN(c3nc4c(c(NC(C)(C)CNC(=O)OC)n3)[S@+]([O-])CC4)CCN21` [Compound 140-1], the IC50 was 10 to 50 nM against PDE4D2, 10 to 50 nM at PDE4B2 (read-out: PDE4B2 IC50) and under 10 nM in data set [1] (setting [5]). In addition, in data set [1] (hPBMC, 100 ng/mL LPS), the “Max inhibition (%)” value is listed as 93.38%.
For `CC#Cc1cnc2c(c1)OC[C@H]1CN(c3nc4c(c(NC(C)(C)CNC(=O)OC)n3)[S@+]([O-])CC4)CCN21` [Compound 140-2], the figures for the IC50 (at PDE4D2; at PDE4B2 (read-out: PDE4B2 IC50); in data set [1] (setting [5])) were 50 to 100 nM, 10 to 50 nM and 10 to 50 nM, respectively. The “Max inhibition (%)” value in data set [1] (hPBMC, 100 ng/mL LPS) came to 89.58%.
